Reference: patent publication EP4684787A1, “PHARMACEUTICAL COMPOSITION CONTAINING DIPEPTIDYL PEPTIDASE SMALL MOLECULE INHIBITOR” (Haisco Pharmaceuticals Pte. Ltd., priority 2023, dated 2024)

Assays:
[1] = Pharmacokinetic Experiment in Rats; type: in vivo, SD rats; conditions: Intravenous (1 mg/kg), rat plasma
Protocol: 1.1 Test animals: Male SD rats, ca. 220 g, 6-8 weeks old, 6 rats/compound. The rats were purchased from […] EXPERIMENTAL ANIMALS CO., LTD. 1.2 Test design: On the day of the test, 6 SD rats were randomly divided into groups according to body weight. The rats were fasted but had access to water for 12-14 hours one day before administration. The rats were fed 4 hours after administration. Table 9. Information for administration Vehicle for intravenous administration: 5% DMA + 5% Solutol + 90% Saline; Vehicle for oral gavage: 0.5% MC; control compound […] is namely Compound 2 in patent WO2015110826A1, and was prepared according to the method described in the patent. Rats were anesthetized with isoflurane before and after administration. Blood (0.1 ml) was collected by orbital blood collection and placed in EDTAK2 centrifuge tube. The blood sample was centrifuged at 5000 rpm at 4°C for 10 min. The plasma was collected. […] All samples were stored at -80° C till analysis and detection. Table 10. Pharmacokinetic parameters of test compounds in rat plasma

NE enzyme = conditions: background statement, no data; cited from earlier work
[2] = tested on: LPS-induced acute lung injury; conditions: background statement, no data; cited from earlier work

CL [1] [mL/min/kg] | Vdss [1] [L/kg] | SMILES | NE enzyme activity in rat bone marrow (NE enzyme) | LPS-induced acute lung injury in mice [2]
1.66 | 0.753 | Cn1c(=O)oc2ccc(-c3ccc(C[C@@H](C#N)NC(=O)[C@@H]4CNCCCO4)c(F)c3)cc21 [Compound A, (S)-N-((S)-1-cyano-2-(2-fluoro-4-(3-methyl-2-oxo-2,3-dihydrobenzo[d]oxazol-5-yl)phenyl)ethyl)-1,4-oxazepane-2-carboxamide] | significantly inhibit | mitigate
2.08 | 0.738 | Cn1c(=O)oc2ccc(-c3ccc(C[C@@H](C#N)NC(=O)[C@@H]4CNCCCO4)cc3)cc21 [INS 1007, reference compound] | – | –
